Reference: patent US11976280B2, “SMAC/Diablo inhibitors useful for treating cancer” (THE NATIONAL INSTITUTE FOR BIOTECHNOLOGY IN THE NEGEV LTD., priority 2017, dated 2024)
d = 2'-deoxy (DNA); r = 2'-OH (RNA)

Test system: A549 cells-derived tumors
Test: Phospholipids, phosphatidylcholine and phosphatidylethanolamine in tumor lipid extracts
Format: in vivo, mice
Procedure: Lipids were extracted from si-NT-TTs and si-hSMAC-A-TTs as described previously (Folch, J., M. et al., 1957. J Biol Chem, 226(1): p. 497-509.). Briefly, 10-20 mg of tissue were added to CHCl3/MeOH (2:1, v/v) (7.5 mg/ml) and homogenized twice using ultrasound sonication. Water (12 μl/mg) was added to the suspension; the tube was closed with a glass cap and shaken at room temperature for 2 h at 400 rpm. The suspension was heated to 60° C. for […] and subsequently stored at 8° C. for more than 1 h in order to denature proteolipids. Undissolved material was separated by filtration through a Syringe Filter (0.4 μm pore). After evaporation of solvent, the residue was re-dissolved in CHCl3/MeOH. The suspension was filtered and the solvent was evaporated again. The weight of the extracted lipids was determined.
Phospholipids content of the lipids extracted from si-NT-TTs and si-hSMAC-A-TTs as described above was determined based on the formation of a complex of the phospholipids with ammonium ferrothiocyanate as described previously (Stewart, J. C., 1980. Anal Biochem, 104(1): p. 10-14). The absorbance at 488 nm was determined and the amounts of phospholipids were calculated using phosphatidylcholine (PC) a standard (10-100 μg). For phosphatidylcholine (PC) determination, samples of the extracted lipids were analyzed using ammonium thiocyanatocobaltate reagent as described previously (Yoshida, Y., E. et al., 1979. J Biochem, 86(3): p. 825-828). The absorbance at 316 nm was measured and PC amount was calculated using a phosphatidylcholine standard (10-100 μg).
Phosphatidylethanolamine (PE) content of the lipids extracted from si-NT-TTs and si-hSMAC-A-TTs was measured using a fluorescence-based assay as described previously (Jae-Yeon Choi et al. 2018. J. Biol. Chem 293, 1493-1503). Briefly, samples of lipid extracted from tumors as described above were dissolved in chloroform and after then chloroform was evaporated under gas nitrogen. The dried extract was then re-suspended in 0.8 mM Triton X-100. To 20 μl of lipid samples, reaction mixture including 50 μl reaction buffer (80 mM NaCl, 2 mM KPO4, pH 7.4), 30 μL H2O and 12.5 μl borate buffer (100 mM boric acid, NaCl 75 mM, sodium tetraborate 25 mM, pH, 9) were added and placed in 96 well plate and mixed well. 12.5 μl of 100 μM distyrylbenzene-bis-aldehyde (DSB-3), kindly provided by Prof. Uwe Bunz, (Organisch-Chemisches Institute, Heidelberg, Germany) prepared in 10 mM KH2PO4, pH 7.4 were then added. After 2 h of incubation in dark with shaking at 100 rpm, fluorometric detection of PE was carried out at λex=403 nm, λem=508 nm, using a plate reader. A standard curve using purified PE was carried out in parallel.
The amounts of total phospholipids and PC in si-NC-TTs and si-SMAC-A-TTs lipid extracts were analyzed (FIG. 10F). […]

Substance: si-hSMAC-A: siRNA to human SMAC/Diablo; sense 5′AAGCGGUGUUUCUCAGAAUUGtt3′ (SEQ ID NO:20), antisense 5′AACAAUUCUGAGAAACCCGCtt3′ (SEQ ID NO:21) (sense AAGCGGUGUUUCUCAGAAUUGTT; antisense AACAAUUCUGAGAAACCCGCTT; sense: sugars from the 5' end r21 d2, backbone not given here; antisense: sugars from the 5' end r20 d2, backbone not given here)
- decrease in phospholipids and specifically PC content (relative to si-NT-TTs): 40-50%
- increase in phosphatidylethanolamine (PE) levels (relative to si-NT-TTs): 2 fold
- decrease in PC (tumor lipid extracts): 37%
- decrease in total phospholipids (tumor lipid extracts): 47%
